# Test results as given in US8952024B2, “Herbicidal pyrimidone derivatives” (E I du Pont de Nemours and Company, priority 2009, dated 2015).
# Tests used:
# Assay type in all cases: in vivo
# [1] = tested on: wild oat (Avena fatua); test: Test B pre-/postemergence plant response; conditions: for Oat, Wild plant response rating (0 to 100 scale): 0 is no effect
# Method in brief: (§1)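 Visually scored on a 0 to 100 scale after 13 to 15 days in greenhouse versus controls. Treatments were preemergence on seeded loam/sand soil and postemergence on 1- to 4-leaf plants.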
# [2] = tested on: soybean (Glycine max); test: Test B pre-/postemergence plant response; conditions: for Soybean plant response rating (0 to 100 scale): postemergence, 0 is no effect, 100 is complete control
# Method in brief: as §1
# [3] = tested on: blackgrass (Alopecurus myosuroides); test: Test B pre-/postemergence plant response; conditions: for Blackgrass plant response rating (0 to 100 scale): 0 is no effect
# Method in brief: as §1
# [4] = tested on: lambsquarters (Chenopodium album); test: Test B pre-/postemergence plant response; conditions: for Lambsquarters plant response rating (0 to 100 scale): 0 is no effect
# Method in brief: as §1
# [5] = tested on: pigweed (Amaranthus retroflexus); test: Test B pre-/postemergence plant response; conditions: for Pigweed plant response rating (0 to 100 scale): 0 is no effect
# Method in brief: as §1
# [6] = tested on: Surinam grass (Brachiaria decumbens); test: Test B pre-/postemergence plant response; conditions: for Surinam Grass plant response rating (0 to 100 scale): postemergence, 0 is no effect, 100 is complete control
# Method in brief: as §1
# [7] = tested on: kochia (Kochia scoparia); test: Test B pre-/postemergence plant response; conditions: for Kochia plant response rating (0 to 100 scale): 0 is no effect
# Method in brief: as §1
# [8] = tested on: cocklebur (Xanthium strumarium); test: Test B pre-/postemergence plant response; conditions: for Cocklebur plant response rating (0 to 100 scale): 62 g ai/ha, 0 is no effect
# Method in brief: as §1
# [9] = tested on: velvetleaf (Abutilon theophrasti); test: Test B pre-/postemergence plant response; conditions: for Velvetleaf plant response rating (0 to 100 scale): postemergence, 0 is no effect, 100 is complete control
# Method in brief: as §1
# [10] = tested on: wheat (Triticum aestivum); test: Test B pre-/postemergence plant response; conditions: for Wheat plant response rating (0 to 100 scale): postemergence, 0 is no effect, 100 is complete control
# Method in brief: as §1
# [11] = tested on: chickweed (Stellaria media); test: Test B postemergence plant response; conditions: for Chickweed plant response rating (0 to 100 scale): 62 g ai/ha, 0 is no effect
# Method in brief: (§2)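 Plants at the 1- to 4-leaf stage (2 to 18 cm tall), grown in pots of peat moss/vermiculite medium with wetting agent and starter nutrients, received postemergence applications of test chemicals. After 13 to 15 days in a greenhouse, injury was rated visually against untreated controls on a 0 (no effect) to 100 (complete control) scale.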
# [12] = tested on: canarygrass (Phalaris minor); test: Test B postemergence plant response; conditions: for Canarygrass plant response rating (0 to 100 scale): 62 g ai/ha, 0 is no effect
# Method in brief: as §2
# [13] = tested on: windgrass (Apera spica-venti); test: Test B postemergence plant response; conditions: for Windgrass plant response rating (0 to 100 scale): 62 g ai/ha, postemergence, 0 is no effect, 100 is complete control; for Plant response rating, Windgrass: Postemergence
# Method in brief: as §2
# [14] = 62 g ai/ha, postemergence, 100 is complete control, 13 to 15 days
# [15] = Postemergence, 31 g ai/ha, 0 to 100 scale (0 no effect, 100 complete control)
# [16] = Postemergence, 125 g ai/ha, scale 0 to 100 (0 no effect, 100 complete control)
# [17] = Postemergence, 250 g ai/ha, scale 0 to 100 (0 no effect, 100 complete control), 13 to 15 days
# [18] = postemergence, 100 is complete control, 13 to 15 days
# [19] = 125 g ai/ha, scale 0 to 100 (0 no effect, 100 complete control)
# [20] = 31 g ai/ha, postemergence, scale 0 to 100, 0 is no effect, 100 is complete control
# [21] = Postemergence, 250 g ai/ha, scale 0 to 100 (0 no effect, 100 complete control)
# [22] = Preemergence, 31 g ai/ha, scale 0 to 100 (0 no effect, 100 complete control)
# [23] = Preemergence, 62 g ai/ha, scale 0 to 100 (0 no effect, 100 complete control)
# [24] = Preemergence, 125 g ai/ha, scale 0 to 100, 0 no effect, 100 complete control
# [25] = Preemergence, 250 g ai/ha, 0 to 100 scale
smiles,measurement,setting,value
CCCn1c(-c2cccc(Br)c2)ncc(C(=O)C2=C(O)CCCC2=O)c1=O [Compound 141],"Oat, Wild plant response rating (0 to 100 scale)",[1]; [14],10
same,"Plant response rating, Oat, Wild",[1]; [15],10
same,"Plant response rating, Oat, Wild",[1]; [16],15
same,"Plant response rating, Oat, Wild",[1]; [17],40
same,Soybean plant response rating (0 to 100 scale),"[2]; 62 g ai/ha, 13 to 15 days",70
same,"Plant response rating, Soybean",[2]; [15],70
same,"Plant response rating, Soybean",[2]; [16],75
same,"Plant response rating, Soybean",[2]; [17],90
same,Blackgrass plant response rating (0 to 100 scale),[3]; [14],5
same,"Plant response rating, Blackgrass",[3]; [15],5
same,"Plant response rating, Blackgrass",[3]; [16],10
same,"Plant response rating, Blackgrass",[3]; [17],25
same,Lambsquarters plant response rating (0 to 100 scale),[4]; [14],80
same,"Plant response rating, Lambsquarters",[4]; [15],80
same,"Plant response rating, Lambsquarters",[4]; [16],98
same,"Plant response rating, Lambsquarters",[4]; [17],100
same,Pigweed plant response rating (0 to 100 scale),[5]; [14],75
same,"Plant response rating, Pigweed",[5]; [15],60
same,"Plant response rating, Pigweed",[5]; [16],95
same,"Plant response rating, Pigweed",[5]; [17],98
same,Surinam Grass plant response rating (0 to 100 scale),"[6]; 62 g ai/ha, 13 to 15 days",65
same,"Plant response rating, Surinam Grass",[6]; [15],40
same,"Plant response rating, Surinam Grass",[6]; [16],70
same,"Plant response rating, Surinam Grass",[6]; [17],75
same,Kochia plant response rating (0 to 100 scale),[7]; [14],65
same,"Plant response rating, Kochia",[7]; [15],20
same,"Plant response rating, Kochia",[7]; [16],85
same,"Plant response rating, Kochia",[7]; [17],90
same,Cocklebur plant response rating (0 to 100 scale),[8]; [18],65
same,"Plant response rating, Cocklebur",[8]; [15],40
same,"Plant response rating, Cocklebur",[8]; [16],95
same,"Plant response rating, Cocklebur",[8]; [17],100
same,Velvetleaf plant response rating (0 to 100 scale),"[9]; 62 g ai/ha, 13 to 15 days",95
same,"Plant response rating, Velvetleaf",[9]; [15],75
same,"Plant response rating, Velvetleaf",[9]; [16],98
same,"Plant response rating, Velvetleaf",[9]; [17],98
same,Wheat plant response rating (0 to 100 scale),"[10]; 62 g ai/ha, 13 to 15 days",5
same,"Plant response rating, Wheat",[10]; [15],0
same,"Plant response rating, Wheat",[10]; [16],5
same,"Plant response rating, Wheat",[10]; [17],10
same,Chickweed plant response rating (0 to 100 scale),[11]; [18],85
same,"Plant response rating, Chickweed",[11]; [15],60
same,"Plant response rating, Chickweed",[11]; [16],90
same,"Plant response rating, Chickweed",[11]; [17],95
same,Canarygrass plant response rating (0 to 100 scale),[12]; [18],0
same,"Plant response rating, Canarygrass",[12]; [15],0
same,"Plant response rating, Canarygrass",[12]; [16],5
same,"Plant response rating, Canarygrass",[12]; [17],5
same,Windgrass plant response rating (0 to 100 scale),[13]; 13 to 15 days,35
same,"Plant response rating, Windgrass","[13]; 31 g ai/ha, 0 to 100 scale (0 no effect, 100 complete control)",25
same,"Plant response rating, Windgrass",[13]; [19],40
same,"Plant response rating, Windgrass","[13]; 250 g ai/ha, scale 0 to 100 (0 no effect, 100 complete control), 13 to 15 days",50
COCCn1c(-c2cc(F)cc(F)c2)ncc(C(=O)C2=C(O)CCCC2=O)c1=O [Compound 119],"Plant response rating, Oat, Wild",[1]; [20],50
same,"Oat, Wild plant response rating (0 to 100 scale)",[1]; [14],60
same,"Plant response rating, Oat, Wild",[1]; [16],95
same,"Plant response rating, Oat, Wild",[1]; [21],95
same,"Plant response rating, Oat, Wild",[1]; [22],0
same,"Plant response rating, Oat, Wild",[1]; [23],45
same,"Plant response rating, Oat, Wild",[1]; [24],50
same,"Oat, Wild plant response rating",[1]; [25],80
same,Soybean plant response rating (0 to 100 scale),"[2]; 62 g ai/ha, 13 to 15 days",50
same,"Plant response rating, Soybean",[2]; [16],60
same,"Plant response rating, Soybean",[2]; [21],80
same,"Plant response rating, Soybean",[2]; [22],10
same,"Plant response rating, Soybean",[2]; [23],55
same,"Plant response rating, Soybean",[2]; [24],80
same,Soybean plant response rating,[2]; [25],80
same,"Plant response rating, Blackgrass",[3]; [20],5
same,Blackgrass plant response rating (0 to 100 scale),[3]; [14],20
same,"Plant response rating, Blackgrass",[3]; [16],50
same,"Plant response rating, Blackgrass",[3]; [21],50
same,"Plant response rating, Blackgrass",[3]; [22],30
same,"Plant response rating, Blackgrass",[3]; [23],30
same,"Plant response rating, Blackgrass",[3]; [24],50
same,Blackgrass plant response rating,[3]; [25],70
same,"Plant response rating, Lambsquarters",[4]; [20],85
same,Lambsquarters plant response rating (0 to 100 scale),[4]; [14],100
same,"Plant response rating, Lambsquarters",[4]; [16],100
same,"Plant response rating, Lambsquarters",[4]; [21],100
same,"Plant response rating, Lambsquarters",[4]; [22],95
same,"Plant response rating, Lambsquarters",[4]; [23],98
same,"Plant response rating, Lambsquarters",[4]; [24],100
same,Lambsquarters plant response rating,[4]; [25],100
same,"Plant response rating, Pigweed",[5]; [20],95
same,Pigweed plant response rating (0 to 100 scale),[5]; [14],98
same,"Plant response rating, Pigweed",[5]; [16],100
same,"Plant response rating, Pigweed",[5]; [21],100
same,"Plant response rating, Pigweed",[5]; [22],80
same,"Plant response rating, Pigweed",[5]; [23],90
same,"Plant response rating, Pigweed",[5]; [24],100
same,Pigweed plant response rating,[5]; [25],100
same,Surinam Grass plant response rating (0 to 100 scale),"[6]; 62 g ai/ha, 13 to 15 days",85
same,"Plant response rating, Surinam Grass",[6]; [16],95
same,"Plant response rating, Surinam Grass",[6]; [21],98
same,"Plant response rating, Surinam Grass",[6]; [22],90
same,"Plant response rating, Surinam Grass",[6]; [23],98
same,"Plant response rating, Surinam Grass",[6]; [24],100
same,Surinam Grass plant response rating,[6]; [25],100
same,"Plant response rating, Kochia",[7]; [20],40
same,Kochia plant response rating (0 to 100 scale),[7]; [14],75
same,"Plant response rating, Kochia",[7]; [16],95
same,"Plant response rating, Kochia",[7]; [21],100
same,"Plant response rating, Kochia",[7]; [22],0
same,"Plant response rating, Kochia",[7]; [23],0
same,"Plant response rating, Kochia",[7]; [24],55
same,Kochia plant response rating,[7]; [25],98
same,"Plant response rating, Cocklebur",[8]; [20],0
same,Cocklebur plant response rating (0 to 100 scale),[8]; [18],10
same,"Plant response rating, Cocklebur",[8]; [16],80
same,"Plant response rating, Cocklebur",[8]; [21],95
same,"Plant response rating, Cocklebur",[8]; [22],0
same,"Plant response rating, Cocklebur",[8]; [24],70
same,Cocklebur plant response rating,[8]; [25],85
same,Velvetleaf plant response rating (0 to 100 scale),"[9]; 62 g ai/ha, 13 to 15 days",80
same,"Plant response rating, Velvetleaf",[9]; [16],100
same,"Plant response rating, Velvetleaf",[9]; [21],100
same,"Plant response rating, Velvetleaf",[9]; [22],75
same,"Plant response rating, Velvetleaf",[9]; [23],80
same,"Plant response rating, Velvetleaf",[9]; [24],100
same,Velvetleaf plant response rating,[9]; [25],100
same,Wheat plant response rating (0 to 100 scale),"[10]; 62 g ai/ha, 13 to 15 days",40
same,"Plant response rating, Wheat",[10]; [16],60
same,"Plant response rating, Wheat",[10]; [22],0
same,"Plant response rating, Wheat",[10]; [23],0
same,"Plant response rating, Wheat",[10]; [24],30
same,Wheat plant response rating,[10]; [25],50
same,"Plant response rating, Chickweed",[11]; [20],70
same,Chickweed plant response rating (0 to 100 scale),[11]; [18],80
same,"Plant response rating, Chickweed",[11]; [16],100
same,"Plant response rating, Chickweed",[11]; [21],100
same,"Plant response rating, Canarygrass",[12]; [20],5
same,Canarygrass plant response rating (0 to 100 scale),[12]; [18],5
same,"Plant response rating, Canarygrass",[12]; [16],30
same,"Plant response rating, Canarygrass",[12]; [21],30
same,Windgrass plant response rating (0 to 100 scale),[13]; 13 to 15 days,85
same,"Plant response rating, Windgrass",[13]; [19],100
